Source: PubChem BioAssay AID652215 (Vanderbilt Specialized Chemistry Center, 2013)
Active and inactive are the calls of the source.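 Rule for the calls: active = activity score of 50 or more, meaning choline uptake cut by at least half versus untreated control; inactive = the rest.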

Target: High affinity choline transporter 1 (Homo sapiens) (UniProt Q9GZV3)
Experiment: CHT inhibition at low and high choline, SAR follow-up, mechanism study for choline transporter inhibitor project, cell-based, HEK-293 hCHT LV-AA, [3H]-choline (AID 652215)
Conditions: [3H]-choline uptake, 15 min, at 5 µM, stronger effect = lower value; for activity remaining, high choline: measured here: 10 uM choline uptake

Sequence of High affinity choline transporter 1 (Homo sapiens) (Q9GZV3 whole entry, looked up): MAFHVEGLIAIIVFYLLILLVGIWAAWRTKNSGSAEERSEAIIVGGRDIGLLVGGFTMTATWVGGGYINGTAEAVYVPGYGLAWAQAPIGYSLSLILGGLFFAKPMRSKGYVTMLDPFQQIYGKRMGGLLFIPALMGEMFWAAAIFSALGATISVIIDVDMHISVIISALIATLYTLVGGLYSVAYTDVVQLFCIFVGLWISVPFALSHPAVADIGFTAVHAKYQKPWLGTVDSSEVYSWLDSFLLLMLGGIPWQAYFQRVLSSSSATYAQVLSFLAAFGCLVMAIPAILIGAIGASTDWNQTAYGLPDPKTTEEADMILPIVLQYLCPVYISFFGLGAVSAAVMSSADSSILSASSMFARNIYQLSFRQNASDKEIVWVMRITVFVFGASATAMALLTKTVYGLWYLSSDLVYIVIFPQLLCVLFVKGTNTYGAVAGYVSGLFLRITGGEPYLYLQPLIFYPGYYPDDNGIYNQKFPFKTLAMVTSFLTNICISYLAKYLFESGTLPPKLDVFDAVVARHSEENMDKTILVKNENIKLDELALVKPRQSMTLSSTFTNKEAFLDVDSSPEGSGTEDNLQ

Compound | activity remaining, low choline | activity remaining, high choline
CCc1cc(CNC(=O)c2ccc(OC)c(OCc3ccccn3)c2)on1 | 90.2% (inactive) | 102%
CCOc1cc(C(=O)NCc2cc(C(C)C)no2)ccc1OC | 93.9% (inactive) | 78.2%
CCc1cc(CNC(=O)c2ccc(OC)c(OCCN3CCOCC3)c2)on1 | 69.2% (inactive) | 78.9%
CCCCOc1cc(C(=O)NCc2cc(CC)no2)ccc1OC | 92.3% (inactive) | 62.3%
CCc1cc(CNC(=O)c2ccc(OC)c(OCc3cccnc3)c2)on1 | 94.5% (inactive) | 72%
COc1ccc(C(=O)NCc2cc(C(C)C)no2)cc1OCc1ccccn1 | 87.2% (inactive) | 100%
CCc1cc(CNC(=O)c2ccc(OC)c(OCC3CCC3)c2)on1 | 91.1% (inactive) | 70.2%
CCOc1cc(C(=O)NCc2cc(CC)no2)ccc1OC | 86.4% (inactive) | 87.1%
COc1ccc(C(=O)NCc2cc(C(C)C)no2)cc1OCc1ccccc1 | 90.8% (inactive) | 97.2%
CCCCOc1cc(C(=O)NCc2cc(C(C)C)no2)ccc1OC | 85.6% (inactive) | 88.8%
COc1ccc(C(=O)NCc2cc(C(C)C)no2)cc1OCc1ccncc1 | 85.9% (inactive) | 83.8%
COc1ccc(C(=O)NCc2cc(C(C)C)no2)cc1OCc1cccnc1 | 87.3% (inactive) | 95.5%
COc1ccc(C(=O)NCc2cc(C(C)C)no2)cc1OC(C)C | 89.4% (inactive) | 99.8%
CCc1cc(CNC(=O)c2ccc(OC)c(OCCN3CCCC3)c2)on1 | 59.3% (inactive) | 71.4%
COCCOc1cc(C(=O)NCc2cc(C(C)C)no2)ccc1OC | 86.8% (inactive) | 84.5%
CCc1cc(CNC(=O)c2ccc(OC)c(OC(C)CN(C)C)c2)on1 (configuration not stated) | 77.1% (inactive) | 57.9%
CCc1cc(CNC(=O)c2ccc(OC)c(OCCN3CCCCC3)c2)on1 | 22.7% | 38.2%
CCc1cc(CNC(=O)c2ccc(OC)c(OCCOC)c2)on1 | 89.1% (inactive) | 80.6%
CCc1cc(CNC(=O)c2ccc(OC)c(O)c2)on1 | 93.7% (inactive) | 90.1%
CCc1cc(CNC(=O)c2ccc(OC)c(OCc3ccccc3)c2)on1 | 90% (inactive) | 107%
CCc1cc(CNC(=O)c2ccc(OC)c(OC(=O)c3ccc(OC)c(O)c3)c2)on1 | 92.3% (inactive) | 88.5%
COc1ccc(C(=O)NCc2cc(C(C)C)no2)cc1OCCCN(C)C | 67.3% (inactive) | 59.6%

Further lines, results first:

activity remaining, low choline | activity remaining, high choline | Compound
92.9% (inactive) | 71% | CCc1cc(CNC(=O)c2ccc(OC)c(OC3CCN(C(C)C)CC3)c2)on1
52.7% (inactive) | 83.6% | COc1ccc(CNC(=O)c2ccc(OC)c(OC3CCN(C(C)C)CC3)c2)cc1OC
98% (inactive) | 99.4% | CCc1cc(CNC(=O)c2ccc(OC)c(OC3CCCC3)c2)on1
36.7% | 88.3% | COc1ccc(C(=O)NCCc2cnn(C)c2)cc1OC1CCN(C(C)C)CC1
94.9% (inactive) | 92.7% | COc1ccc(C(=O)NCc2cc(C(C)C)no2)cc1OCC1CCC1
9.91% | 66.3% | COc1ccc(C(=O)NCC[C@@H]2C[C@@H]3C=C[C@H]2C3)cc1OC1CCN(C(C)C)CC1
33.1% | 57% | COc1ccc(C(=O)NCc2cnn(C)c2C)cc1OC1CCN(C(C)C)CC1
15.9% | 58% | COc1ccc(C(=O)NCCc2c[nH]c3ccccc23)cc1OC1CCN(C(C)C)CC1
56.5% (inactive) | 67.1% | CCc1cc(CNC(=O)c2ccc(OC)c(OC3CCCN(C)C3)c2)on1 (configuration not stated)
71.9% (inactive) | 67.1% | COc1ccc(C(=O)NCC2OCCc3ccccc32)cc1OC1CCN(C(C)C)CC1 (configuration not stated)
20.4% | 77.5% | COc1ccc(C(=O)NCCCn2cccn2)cc1OC1CCN(C(C)C)CC1
35.3% | 81% | COc1ccc(C(=O)NCc2ccc(Cl)s2)cc1OC1CCN(C(C)C)CC1
62.2% (inactive) | 94.7% | CCc1cc(CNC(=O)c2ccc(OC)c(OC3CCNCC3)c2)on1
32.9% | 64.8% | COc1ccc(C(=O)NCc2ccccc2C)cc1OC1CCN(C(C)C)CC1
7.98% | 56.4% | CCc1cc(CNC(=O)c2ccc(OC)c(OC3CCN(C)CC3)c2)on1
29.7% | 101% | COc1ccc(C(=O)N[C@H]2CC[C@H](O)CC2)cc1OC1CCN(C(C)C)CC1
57.1% (inactive) | 73.9% | COc1ccc(C(=O)NC(C)c2cn(C)nc2C)cc1OC1CCN(C(C)C)CC1 (configuration not stated)
34.1% | 72.1% | COc1ccc(C(=O)NC(C)c2nccs2)cc1OC1CCN(C(C)C)CC1 (configuration not stated)
72.2% (inactive) | 78.8% | COc1ccc(C(=O)NC2CCCCC2)cc1OC1CCN(C(C)C)CC1
13.1% | 73.4% | COc1ccc(C(=O)N[C@H]2CCCCNC2=O)cc1OC1CCN(C(C)C)CC1
87.2% (inactive) | 83% | COc1ccc(C(=O)NCc2cc(C(C)C)no2)cc1OCC1CCCCC1
80% (inactive) | 74.5% | COc1ccc(C(=O)NCC2CCOCC2)cc1OC1CCN(C(C)C)CC1
52.4% (inactive) | 60.8% | COc1ccc(C(=O)NCCCn2ccnc2)cc1OC1CCN(C(C)C)CC1
46% | 83.3% | COc1ccc(C(=O)NCc2ccon2)cc1OC1CCN(C(C)C)CC1
29.4% | 60.9% | COc1ccc(C(=O)NCc2cccc(C)c2)cc1OC1CCN(C(C)C)CC1
41.8% | 97.6% | COc1ccc(C(=O)NCCN2CCOC2=O)cc1OC1CCN(C(C)C)CC1
80.3% (inactive) | 84.5% | COc1ccc(C(=O)NCCN2CCCCC2=O)cc1OC1CCN(C(C)C)CC1
43.1% | 71.2% | COc1ccc(C(=O)NCC(C)Oc2cccnc2)cc1OC1CCN(C(C)C)CC1 (configuration not stated)
71.2% (inactive) | 82.8% | COc1ccc(C(=O)NCCc2ccncc2)cc1OC1CCN(C(C)C)CC1
